In patent US20200360306A1, “USE OF CO-CRYSTALS OF TRAMADOL AND CELECOXIB FOR TREATING PAIN WHILE REDUCING THE ABUSE LIABILITY OF TRAMADOL” (ESTEVE PHARMACEUTICALS, S.A., priority 2019, published 2020):
Several values for one entry are separate records, joined by “and”; a condition that tells them apart may be missing. Equal values may be shown once.

Assay: Single dose, randomized, open-label, 4-period crossover pharmacokinetic study; plasma tramadol and O-desmethyltramadol (M1) by HPLC-MS/MS; AQ=Cmax/Tmax
Details: healthy subjects; for AQ for tramadol, comparison between treatments (statistical significance): 4-way cross-over study; for O-desmethyltramadol AQ / O-desmethyltramadol Cmax / O-desmethyltramadol Tmax / Tramadol AQ / Tramadol Cmax: 2 × 100 mg co-crystal E-58425 tablets (Treatment 1), oral
Experimental: The study was a single center, randomized, single dose, open-label, 4-period, 4-sequence, crossover design in healthy male and female subjects.
The products were administered to 36 subjects. The wash-out between the periods for each subject was of 7 calendar days.
Separate blood samples were obtained for analysis of tramadol/M1 metabolite and for analysis of celecoxib (data not shown).
As soon as possible following blood collection, samples were centrifuged at a temperature of 4° C. nominal and at approximately 1500 g for 10 minutes. The plasma obtained was separated into duplicate polypropylene culture tubes. […] The samples were frozen in an upright position and retained in the clinic's freezers at a temperature of −20° C. nominal until sent on dry ice to the bioanalytical facility for assay.
The experimental human plasma samples were assayed for tramadol and M1 metabolite (O-desmethyltramadol) and also for celecoxib (data not shown) using two different validated bioanalytical methods by HPLC with MS/MS detection.
Sample pre-treatment involved the liquid-liquid extraction of tramadol and O-desmethyltramadol from 0.100 mL of human plasma; tramadol-D6 and O-desmethyltramadol-D6 were used as the internal standards (IS1 and IS2 respectively). The compounds were identified and quantified using Hilic HPLC with MS/MS detection over a theoretical concentration range of 2.00 ng/mL to 800.00 ng/mL for tramadol and 0.500 ng/mL to 200.00 ng/mL for O-desmethyltramadol. The concentrations were calculated using peak area ratios and the linearity of the calibration curve was determined using a weighted (1/x^2) linear (y=mx+b) least squares regression analysis for tramadol and for O-desmethyltramadol.
Pharmacokinetic parameters were estimated from the individual plasma concentration—time profile for each subject. The main absorption and disposition parameters were obtained using a non-compartmental approach with a log-linear terminal phase assumption. Maximum observed plasma concentration (Cmax) and the time of maximum observed plasma concentration (Tmax) were obtained directly from the experimental data. The trapezoidal rule was used to estimate the area under the curve (AUC; data not shown) and the terminal phase was estimated by maximizing the coefficient of determination estimated from the log-linear regression model (T1/2; data not shown). The abuse quotient was obtained using the following expression AQ=Cmax/Tmax.

[1] = Table 3 summary, oral co-crystal E-58425 tablets

COc1cccc([C@]2(O)CCCC[C@@H]2CN(C)C)c1.Cc1ccc(-c2cc(C(F)(F)F)nn2-c2ccc(S(N)(=O)=O)cc2)cc1.Cl (racemic) [co-crystal E-58425, co-crystal of (rac)-tramadol.HCl and celecoxib]
AQ for tramadol, comparison between treatments (statistical significance): better (lower) AQ ratio
AQ for tramadol, comparison between treatments (statistical significance) (listed as Co-crystal E-58425): lower than those obtained for Ultram® and for Ultram® and Celebrex® taken concomitantly
O-desmethyltramadol AQ (Mean, n=33): 13.5 ng/(mL · h)
O-desmethyltramadol Cmax (Mean, n=33): 54.5 ng/mL
O-desmethyltramadol Tmax (Mean, n=33): 4.4 h
Tramadol AQ (Mean, n=33): 70.5 ng/(mL · h)
Tramadol Cmax (Mean, n=33): 214.3 ng/mL
O-desmethyltramadol AQ (Median, n=33): 13.3 ng/(mL · h)
O-desmethyltramadol Cmax (Median, n=33): 55.4 ng/mL
Tramadol AQ (Median, n=33): 70.7 ng/(mL · h)
Tramadol Cmax (Median, n=33): 207.5 ng/mL
AQ M1 Mean [1]: 13.5
AQ Tramadol Mean [1]: 70.5
O-desmethyltramadol Tmax (individual subject values, fasting, plasma): 3.00 h and 4.00 h
